For 37 molecules, IC50 and IC90 results are on record in ChEMBL document CHEMBL4483862, “Open-source discovery of chemical leads for next-generation chemoprotective antimalarials” (2018).

The subject of the experiment is Plasmodium berghei. Briefly: Luciferase/luciferin-expressing antifolate-resistant parasites were used to infect a culture of HepG2 cells that were pre-incubated with compounds. Infected hepatocytes emit light due to the luciferase reaction. Assay results are presented as the percent inhibition of light emission compared to control. […]. The following applies: sporozoite; for IC90: read-out: LUCIFERASE INFECTION ASSAY - IC90. In kind it is functional.

[1] abbreviates: read-out: LUCIFERASE INFECTION ASSAY - IC50.

For the molecule `CS(=O)(=O)c1ccc(Nc2cc3[nH]c(-c4cccc(C(F)(F)F)c4)cc3cn2)cc1`, the IC90 was 9.79 µM. Moreover, the IC50 (PBLUC_HILL_SLOPE 3.36, PBLUC_R_SQUARED 0.528, read-out: LUCIFERASE INFECTION ASSAY - IC50) amounted to 5.09 µM.

For the molecule `NC(=S)CCOC1CCN(Cc2ccccc2)CC1`, the IC90 is over 11.9 µM. In addition, under setting [1], the IC50 is over 11.9 µM.

As to `CCc1c(C)sc2nc(SCC(=O)c3cc(C)n(-c4ccc5c(c4)OCO5)c3C)n(CC)c(=O)c12`, the IC90 was over 10 µM. In addition, the IC50 (HEPG2TOX_HILL_SLOPE 1.63, HEPG2TOX_R_SQUARED 0.963, PBLUC_HILL_SLOPE 1.91, PBLUC_R_SQUARED 0.412, read-out: LUCIFERASE INFECTION ASSAY - IC50) amounted to 3.47 µM.

As to `OCCNCc1cc(Cl)ccc1OCc1ccc(Cl)cc1Cl`, the IC90 was over 8.31 µM. Besides, the IC50 (HEPG2TOX_HILL_SLOPE 0.0281, HEPG2TOX_R_SQUARED 0.0269, read-out: LUCIFERASE INFECTION ASSAY - IC50) was over 8.31 µM.

Take `N/C(=N\NC(=O)c1cccc(C(F)(F)F)c1)c1ccc(C(F)(F)F)cn1`: the IC90 worked out at 1.42 µM. In addition, for the setting “HEPG2TOX_HILL_SLOPE 1.95, HEPG2TOX_R_SQUARED 0.695, PBLUC_HILL_SLOPE 3.85, PBLUC_R_SQUARED 0.803, read-out: LUCIFERASE INFECTION ASSAY - IC50”, the half-maximal inhibitory concentration (IC50) was 0.802 µM.

For the molecule `CC(C)(C)c1cc(C(=O)Nc2nc(C(N)c3ccccc3Cl)cs2)n(Cc2ccccc2)n1` (centres undefined), the IC90 stood at 6.37 µM. Besides, the IC50 (PBLUC_HILL_SLOPE 22.9, PBLUC_R_SQUARED 0.71, read-out: LUCIFERASE INFECTION ASSAY - IC50) is 5.79 µM.

Consider `O=C(Nc1nonc1-c1ccc(F)cc1)c1sc2ccccc2c1Cl`, for which the IC90 is 7.47 µM. Also, for the setting “HEPG2TOX_HILL_SLOPE 12, HEPG2TOX_R_SQUARED 0.71, PBLUC_HILL_SLOPE 5.14, PBLUC_R_SQUARED 0.171, read-out: LUCIFERASE INFECTION ASSAY - IC50”, the IC50 is 4.87 µM.

Consider `C/C(=N\Nc1nc2ccccc2[nH]1)c1ccc2c(c1)OCO2`, for which the IC90 was 4.99 µM. In addition, under setting [1], the half-inhibitory concentration (IC50) was determined as 4.04 µM.

Consider `CC(=O)C1C2C(=O)N(C(C)(C)C)C(=O)C2C2C=Cc3ccc4cccnc4c3N21` (centres undefined), for which the IC90 is 6.42 µM. For the same molecule, the half-inhibitory concentration (IC50) (HEPG2TOX_HILL_SLOPE 8.2, HEPG2TOX_R_SQUARED 0.867, PBLUC_HILL_SLOPE 4.87, PBLUC_R_SQUARED 0.475, read-out: LUCIFERASE INFECTION ASSAY - IC50) amounted to 4.09 µM.

On to `O=C(CCn1ccnn1)Nc1ccc(Sc2ccc(Br)cc2)cc1`, for which the IC90 is over 10 µM. Where the note is “HEPG2TOX_HILL_SLOPE 6.85, HEPG2TOX_R_SQUARED 0.647, PBLUC_HILL_SLOPE 1.94, PBLUC_R_SQUARED 0.683, read-out: LUCIFERASE INFECTION ASSAY - IC50”, the IC50 worked out at 6.08 µM.

Regarding `O=C1C=CC(=O)N1c1ccc(Cl)c(Cl)c1`, the IC90 was over 13.6 µM. For the setting “FFLUC_HILL_SLOPE 16.6, FFLUC_R_SQUARED 0.832, read-out: LUCIFERASE INFECTION ASSAY - IC50”, the IC50 is over 13.6 µM.

Take `CCOC(=O)c1sc(N)c(C#N)c1COC(=O)C1(c2cccc(F)c2)CCCC1`: the IC90 is 8.29 µM. Further, under “HEPG2TOX_HILL_SLOPE 2.42, HEPG2TOX_R_SQUARED 0.924, PBLUC_HILL_SLOPE 2.7, PBLUC_R_SQUARED 0.388, read-out: LUCIFERASE INFECTION ASSAY - IC50”, the IC50 turned out to be 3.67 µM.

For `CCOC(=O)c1c(C)[nH]c(C(=O)COC(=O)Cn2[nH]c(=O)c3ccccc3c2=O)c1C`, the IC90 was over 10 µM. For the same molecule, the IC50 (HEPG2TOX_HILL_SLOPE 2.60, 1.21, HEPG2TOX_R_SQUARED 0.645, 0.988, read-out: LUCIFERASE INFECTION ASSAY - IC50) was over 10 µM.

As to `CCCn1c(=O)c2ccccc2n2c(SCc3nc(=O)c4ccc(C(=O)O)cc4[nH]3)nnc12`, the IC90 was over 10 µM. For the same molecule, under setting [1], the IC50 is over 10 µM.

With `COc1ccc(NS(=O)(=O)c2cc([N+](=O)[O-])ccc2NNC(=S)NC2CCCCC2)cc1`, the IC90 is over 10 µM. Also, under setting [1], the IC50 was over 10 µM.

For `O=C(NC(c1ccccc1O)C(NC(=O)c1ccccc1)c1ccccc1O)c1ccccc1` (centres undefined), the IC90 is over 7.29 µM. The IC50 under setting [1] was over 7.29 µM.

Turning to `CCC(C)NC(=O)c1c(NC(=O)c2ccc(F)cc2)nc2ccc(C)cn12` (centres undefined), the IC90 amounted to 3.49 µM. In addition, the IC50 (HEPG2TOX_HILL_SLOPE 5.39, HEPG2TOX_R_SQUARED 0.713, PBLUC_HILL_SLOPE 10.6, PBLUC_R_SQUARED 0.548, read-out: LUCIFERASE INFECTION ASSAY - IC50) is 2.84 µM.

With `N=C(N)N/N=C\c1cccc2ccccc12`, the IC90 is over 15.5 µM. Besides, the IC50 (PBLUC_HILL_SLOPE 1.61, PBLUC_R_SQUARED 0.436, read-out: LUCIFERASE INFECTION ASSAY - IC50) was 6.92 µM.

`O=C(Nc1cc(Cl)sc1Cl)Oc1cccnc1`: the concentration for an effect of 90% (IC90) was determined as 10.6 µM. Besides, the half-inhibitory concentration (IC50) (PBLUC_HILL_SLOPE 2.49, PBLUC_R_SQUARED 0.591, read-out: LUCIFERASE INFECTION ASSAY - IC50) amounted to 4.41 µM.

As for `O=C(Cc1ccccc1)Nc1ccccc1C(=O)Nc1nc2ccccc2[nH]1`, the IC90 is over 10 µM. In addition, the concentration for half-maximal inhibition (IC50) (HEPG2TOX_HILL_SLOPE 7.34, HEPG2TOX_R_SQUARED 0.432, read-out: LUCIFERASE INFECTION ASSAY - IC50) was over 10 µM.

In the case of `CC(CO)NCCOCCOc1ccc(Cl)cc1Cc1ccccc1` (centres undefined), the 90% effect concentration (IC90) is over 10 µM. Further, under setting [1], the IC50 was over 10 µM.

With `COc1ccc(-[n+]2c(-c3ccc(Br)cc3)cn3c2CCc2ccccc2-3)cc1`, the IC90 stood at 3.77 µM. Also, the IC50 (HEPG2TOX_HILL_SLOPE 3.09, HEPG2TOX_R_SQUARED 0.93, PBLUC_HILL_SLOPE 14.3, PBLUC_R_SQUARED 0.689, read-out: LUCIFERASE INFECTION ASSAY - IC50) amounted to 3.23 µM.

Regarding `CCCCC1(COC(=O)c2ccc(C(C)(C)C)cc2)C(=O)N(c2ccccc2)N(c2ccccc2)C1=O`, the IC90 was over 6.62 µM. In addition, the half-maximal inhibitory concentration (IC50) (PBLUC_HILL_SLOPE 2.41, PBLUC_R_SQUARED 0.52, read-out: LUCIFERASE INFECTION ASSAY - IC50) was 4.52 µM.

For the molecule `Cc1cc(=O)nc(N/N=C2/CCc3ccccc3C2)[nH]1`, the IC90 was over 10 µM. The IC50 under setting [1] is 5.6 µM.

As to `C=CCn1c(SC(C(=O)c2c[nH]c3ccccc23)c2ccccc2)nc2ccccc2c1=O` (centres undefined), the IC90 was over 10 µM. Also, the IC50 under setting [1] was found to be 8.28 µM.

On to `N#C/C(=N\Nc1ccc(OC(F)(F)F)cc1)C(=O)c1ccsc1`, for which the IC90 was 6.42 µM. The IC50 (HEPG2TOX_HILL_SLOPE 1.43, HEPG2TOX_R_SQUARED 0.957, PBLUC_HILL_SLOPE 2.41, PBLUC_R_SQUARED 0.455, read-out: LUCIFERASE INFECTION ASSAY - IC50) was found to be 2.58 µM.

For `C/C(=N\NC(=S)Nc1ccccc1)c1ccn[nH]1`, the IC90 was over 12.7 µM. In addition, the IC50 (FFLUC_HILL_SLOPE 48.7, FFLUC_R_SQUARED 0.514, PBLUC_HILL_SLOPE 3.68, PBLUC_R_SQUARED 0.194, read-out: LUCIFERASE INFECTION ASSAY - IC50) is 8.67 µM.

With `CCNc1cc(C(=O)Nc2ccccc2)ncn1`, the IC90 was over 13.6 µM. Also, the IC50 under setting [1] is 0.963 µM.

For `Cc1cc(C(C)(C)C)cc(C)c1CCNC(=O)C1CC1C` (centres undefined), the IC90 is 9.15 µM. Moreover, the IC50 (HEPG2TOX_HILL_SLOPE 11.1, HEPG2TOX_R_SQUARED 0.0296, PBLUC_HILL_SLOPE 3.7, PBLUC_R_SQUARED 0.553, read-out: LUCIFERASE INFECTION ASSAY - IC50) was 5.05 µM.

With `CNc1nc2cnc(-c3ccc(F)c(Cl)c3)cc2n1Cc1ccc(OC)c(OC)c1`, the IC90 stood at 3.93 µM. For the same molecule, for the setting “PBLUC_HILL_SLOPE 1.59, PBLUC_R_SQUARED 0.826, read-out: LUCIFERASE INFECTION ASSAY - IC50”, the IC50 turned out to be 0.992 µM.

Take `CCOC(=O)c1cnc2c([N+](=O)[O-])cccc2c1O`: the IC90 worked out at 4 µM. For the same molecule, the IC50 (PBLUC_HILL_SLOPE 2.74, PBLUC_R_SQUARED 0.626, read-out: LUCIFERASE INFECTION ASSAY - IC50) came to 1.79 µM.

Turning to `O=C(Nc1ccccc1-c1nc(=O)c2ccccc2[nH]1)C12CC3CC(CC(C3)C1)C2`, the concentration for an effect of 90% (IC90) is over 10 µM. The IC50 (PBLUC_HILL_SLOPE 7.56, PBLUC_R_SQUARED 0.487, read-out: LUCIFERASE INFECTION ASSAY - IC50) was found to be 9.01 µM.

Take `COc1ccc(-c2ccc(/C=N/Nc3ccc(F)cc3)s2)cc1`: the IC90 is 5.44 µM. The concentration for half-maximal inhibition (IC50) (HEPG2TOX_HILL_SLOPE 1.1, HEPG2TOX_R_SQUARED 0.99, PBLUC_HILL_SLOPE 2.83, PBLUC_R_SQUARED 0.421, read-out: LUCIFERASE INFECTION ASSAY - IC50) stood at 2.5 µM.

Turning to `COc1ccc(CCN2C(=O)N(CC(C)C)C(=O)C23CCN(C2CCc4ccccc4C2)CC3)cc1` (centres undefined), the IC90 is 2.72 µM. The IC50 (HEPG2TOX_HILL_SLOPE 52.5, HEPG2TOX_R_SQUARED 0.896, PBLUC_HILL_SLOPE 13.1, PBLUC_R_SQUARED 0.487, read-out: LUCIFERASE INFECTION ASSAY - IC50) turned out to be 2.3 µM.

With `Cc1cc(C)n2nc(SCC(=O)c3c(-c4ccccc4)[nH]c4ccccc34)nc2n1`, the IC90 turned out to be 5.12 µM. Besides, for the setting “PBLUC_HILL_SLOPE 3.17, 7.12, PBLUC_R_SQUARED 0.979, 0.666, read-out: LUCIFERASE INFECTION ASSAY - IC50”, the IC50 was determined as 4.67 µM.

Regarding `C=CCNc1nc(Nc2ccc(OC)c(OC)c2)c2sc(-c3ccccc3)cc2n1`, the IC90 was over 7.88 µM. Also, the IC50 under setting [1] stood at 3.61 µM.

As for `CN1CCN(C(=O)c2cccc(-c3cnc4cnc(-c5ccccc5Oc5ccccc5)cn34)c2)CC1`, the IC90 is over 6.74 µM. Besides, the half-inhibitory concentration (IC50) (PBLUC_HILL_SLOPE 3.72, PBLUC_R_SQUARED 0.499, read-out: LUCIFERASE INFECTION ASSAY - IC50) was found to be 3.93 µM.

What is called IC50 is the point on the concentration scale where inhibition reaches its midpoint. Broadly, the IC90 is the point of the concentration-response curve where the effect stands at 90%.
